Reference: US8609610B2, “Inhibitors of the trypsin-like site of the proteasome and methods of use thereof” (Trustees of Dartmouth College, priority 2011, dated 2013)
pIC50: −log10 of the molar value. Read-outs that look alike come from different tables or passages of the source.

Columns and labels:
[1] = test system: trypsin-like sites (β2) of proteasome in MM cells; test: PROTEASOMEGLO assay of proteasome inhibition in MM cells; format: cell-based
[2] = target: β2 (trypsin-like site) of proteasome in HEK-293T cells (Homo sapiens, UniProt P49720+Q99436); test: Competition assay in living HEK-293T cells with activity-based probe; format: cell-based; details: 5 μM
Experimental: (§1) Proteasome inhibition in MM cells was measured with luminogenic substrates using PROTEASOMEGLO assay (Promega). […] An aliquot of culture was pelleted and medium was removed and replaced with PBS. The resulting cell suspension was mixed with luminogenic substrates in the manufacturer-provided lysis/assay buffer. After 3 minutes mixing on an orbital shaker, the plate was incubated in the dark for additional 17 minutes, followed by the measurements of the luminescence, performed in triplicate for each substrate/data point. Data were analyzed as for purified proteasomes. […] Cells (1×10^6 per well of a 6-well plate) were incubated with the inhibitors for 4 hours at 37° C. and this was followed by a 2 hour incubation with 5 μM BODIPY-TMR-epoxomicin. Subsequently, the medium was removed and the cells were washed with PBS and harvested. […] The supernatant was collected and the protein concentration was determined by the Bradford assay, and used to normalize gel loading. The samples were analysed by SDS-PAGE and fluorescent densitometry as described for competition experiment in cell lysates. IC50 values were calculated from three independent experiments using […] PRISM software.
(§2) Human embryonic kidney cells (some 1×10^6) were cultured in 6-well plates in DMEM containing 10% fetal calf serum, 10 units/mL penicillin and 10 μg/mL streptomycin in a 7% CO2 humidified incubator at 37° C. overnight. Part of the medium was taken and to this was added the appropriate inhibitor in DMSO (1 μL of a 1,000× stock solution), after which the medium was added to the cells. The cells were incubated with the inhibitors for 4 hours at 37° C. and this was followed by addition of MV151 (1 μL of a 5 mM stock solution in DMSO) and incubation for 2 hours at 37° C. Next, the medium was removed and the cells were washed with PBS and harvested. […] The supernatant was collected and the protein concentration was determined by the Bradford assay. All samples were normalized to the same protein concentration with lysis buffer.

[3] = test system: RPMI-8226 cells; test: ALAMAR BLUE cell viability assay; format: cell-based; details: RPMI-8226 cells
Method in brief: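 Myeloma lines were grown in RPMI-1640 with 10% FBS; viability of myeloma cells was read by ALAMAR BLUE mitochondrial dye conversion. PBMNC viability used CELL TITER-GLO ATP luminescence. Caspase-3/7 activity in NCI-H929 and MM1.R was measured with the APO-ONE homogeneous assay.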

[4] = test system: Cathepsin B, H, L, S; test: Cathepsin activity with pan-cathepsin substrate Z-FR-amc; format: cell-based; details: NCI-H929 cells, 6 hour treatment
Method in brief: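 Extracts of cytosol-less cells were used throughout. Cathepsins B, H, L and S were assayed with the fluorogenic Z-FR-amc substrate at pH 6.0. Cathepsin D was measured with the SENSOLYTE 520 fluorometric kit.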

[5] = target: T1, β5 proteasome subunit (Homo sapiens, UniProt P20618+P28074); test: Competition assay in HEK-293T cell lysate with MV151; format: biochemical; details: HEK-293T lysate, 50 μM
T1 construct: Whole cell lysates of HEK-293T or EL-4 cells were made by sonication; endogenous in cells; host or cells: HEK-293T
Experimental: (§3) Whole cell lysates of HEK-293T or EL-4 cells were made by sonication in 3 volumes of lysis buffer containing 50 mM Tris pH 7.5, 1 mM DTT, 5 mM MgCl2, 250 mM sucrose, 2 mM ATP, 0.025% digitonin. Protein concentration was determined by the Bradford assay. Cell lysates (13.5 μg total protein for HEK lysates and 9 μg total protein for EL-4 lysates) were exposed to the inhibitors for 1 hour at 37° C. prior to incubation with MV151 (0.5 μM) or BODIPY-TMR-epoxomicin (0.5 μM) for an additional 1 hour at 37° C. Reaction mixtures were boiled with Laemmli's buffer containing (3-mercaptoethanol for 5 minutes before being resolved by 12.5% SDS-PAGE. In-gel detection of residual proteasome activity was performed in the wet gel slabs directly on the TYPHOON Variable Mode Imager (Amersham Biosciences) using the Cy3/Tamra settings (λex 532 nm, λem 560 nm) to detect MV151, BODIPY-TMR-epoxomicin and Cy2/Fam settings (λex 488 nm, λem 520 nm) to detect compounds 39 and 59.
(§4) The inhibition potential of the inhibitors for each of the catalytically active subunits was assessed in competition assays employing extracts of human embryonic kidney cells (HEK-293T) and mouse lymphoma cells (EL-4) in combination with the fluorescent broad spectrum proteasome probe MV151 (Verdoes, et al. (2006) Chem. Biol. 13:1217-1226). Competitive inhibition of a proteasome active site is reflected by the disappearance of the corresponding band on a gel.

[6] = test system: myeloma cells U266 and AMO-1; test: Cytotoxicity in combination with β5-selective proteasome inhibitors; format: cell-based; details: PR671A with bortezomib or PR523
[7] = test system: bortezomib-adapted cell lines AMO-1a and HL-60a; test: Combination in bortezomib-adapted cell lines; format: cell-based; details: in combination with bortezomib or PR523
[8] = test system: bortezomib-refractory primary myeloma cells from patients; test: Combination in bortezomib-refractory primary myeloma cells; format: cell-based; details: in combination with bortezomib or PR523; primary cells from three patients
[9] = target: caspase-like site of 26S proteasomes (Oryctolagus cuniculus, UniProt A0A5F9DQW2); test: Inhibition of purified 26S proteasomes, substrate Ac-nLPnLD-amc; format: biochemical, rabbit; details: >>30 no inhibition at 30 μM, >30 inhibition between 10 and 50% at 30 μM, read-out: IC50 for sites in 26S proteasomes: Casp-L
caspase-like site of 26S proteasomes, sequence (A0A5F9DQW2 1-212): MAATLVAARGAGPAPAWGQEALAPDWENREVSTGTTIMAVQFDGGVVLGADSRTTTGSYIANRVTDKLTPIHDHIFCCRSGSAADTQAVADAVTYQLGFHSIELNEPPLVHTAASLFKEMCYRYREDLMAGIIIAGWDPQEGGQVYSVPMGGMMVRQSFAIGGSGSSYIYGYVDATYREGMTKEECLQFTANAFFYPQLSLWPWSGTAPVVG
Experimental: 26S proteasomes were purified from rabbit muscle using known methods (Screen, et al. (2010) supra). […] NOVEX Bis-Tris gels (12%, Invitrogen) with MOPS running buffer were used for electrophoretic separation of catalytic subunits modified by active-site probes. Inhibition of active sites inside cells was assayed using luminescent PROTEASOMEGLO assay (Promega; Moravec, et al. (2009) Anal. Biochem. 387:294-302) according to known methods (Britton, et al. (2009) supra).

[10] = target: T2, trypsin-like sites (β2) of proteasome in MM cells (Homo sapiens, UniProt Q99436); test: PROTEASOMEGLO assay of proteasome inhibition in MM cells; format: cell-based; details: 6 hours, >>30 no inhibition at 30 μM, >30 inhibition 10-50% at 30 μM, read-out: IC50 for sites: Tr-L
T2 construct: endogenous in cells; host or cells: NCI-H929, RPMI-8226 and other MM cell lines
T2 sequence (Q99436 44-277): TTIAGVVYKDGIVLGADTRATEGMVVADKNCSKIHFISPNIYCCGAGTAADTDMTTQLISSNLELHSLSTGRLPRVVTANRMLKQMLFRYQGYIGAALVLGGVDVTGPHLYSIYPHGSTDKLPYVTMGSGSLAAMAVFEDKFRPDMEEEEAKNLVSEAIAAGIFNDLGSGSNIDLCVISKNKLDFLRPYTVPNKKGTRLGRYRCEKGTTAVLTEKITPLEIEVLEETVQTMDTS

[11] = target: T3, caspase-like sites (β1) of proteasome in MM cells (Homo sapiens, UniProt P28072+Q99436); test: as above; format: cell-based; details: read-out: IC50 for sites: Casp-L, 6 hours, >>30 no inhibition at 30 μM, >30 inhibition 10-50% at 30 μM
T3 sequence (P28072 35-239): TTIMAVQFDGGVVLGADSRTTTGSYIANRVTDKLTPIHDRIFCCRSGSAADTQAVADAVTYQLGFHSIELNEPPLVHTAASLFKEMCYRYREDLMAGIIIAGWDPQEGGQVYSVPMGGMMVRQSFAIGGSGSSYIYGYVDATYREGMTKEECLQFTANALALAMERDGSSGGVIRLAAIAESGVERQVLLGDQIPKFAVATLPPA
T3 sequence (Q99436 44-277): T2 sequence (Q99436 44-277)

[12] = target: β5 (chymotrypsin-like site) of proteasome in HEK-293T cells (Homo sapiens, UniProt P20618+P28074); test: Competition assay in living HEK-293T cells with activity-based probe; format: cell-based; details: concentrations up to 50 μM
Experimental: as §1, §2

[13] = target: T4, β2 proteasome subunit (Mus musculus, UniProt P70195+Q9R1P1); test: Competition assay in EL-4 cell lysate with MV151; format: biochemical; details: 0.5 μM
T4 construct: Whole cell lysates of HEK-293T or EL-4 cells were made by sonication; endogenous in cells; host or cells: EL-4

[14] = target: T5, β2i proteasome subunit (Mus musculus, UniProt O35955+Q9R1P1); test: Competition assay in EL-4 cell lysate with MV151; format: biochemical; details: EL-4 lysate
T5 construct: Whole cell lysates of HEK-293T or EL-4 cells were made by sonication; endogenous in cells; host or cells: EL-4
Experimental: as §3
as §4, with “Competitive inhibition of a proteasome active site is reflected by the disappearance of the corresponding band on a gel.” left out

[15] = target: chymotrypsin-like activity of yeast 20S proteasome (Saccharomyces cerevisiae, UniProt P23724+P30656); test: Yeast 20S core particle activity, substrate Suc-LLVY-amc; details: read-out: IC50 for yeast 20S proteasome: Chym-L
Experimental: Proteasomes were pre-incubated with inhibitors for minutes, and inhibitors were present during activity assays. Fluorescence was measured at λexc=360, λem=460 nm using a Varian Cary Eclipse Fluorescence Spectrophotometer (Agilent Technologies).

| Structure (SMILES) | difference in IC50 for trypsin-like activity between NCI-H929 and RPMI-8226 [1] | time to steady-state proteasome inhibition ([1]; RPMI-8226 cells) [h] | inhibition of β2 activity in living cells ([2]; 4 hours) | sensitization to bortezomib [3] | sensitization to carfilzomib [3] | inhibition of cathepsins (Z-FR-amc) [4] | inhibition of β5 in cell lysate [5] | cytotoxicity of combination [6] | effect on bortezomib resistance [7] | effect on bortezomib resistance [8] | pIC50 [9] | pIC50 ([10]; NCI-H929 cells) | pIC50 ([10]; RPMI-8226 cells) | pIC50 ([11]; NCI-H929 cells) | pIC50 ([11]; RPMI-8226 cells) | β2 band in living cells [2] | β5 in living cells [12] | inhibition of β2 in EL-4 lysate [13] | concentration at which inhibition of β2i starts [14] [µM] | pIC50 [15] |
| --- | --- | --- | --- | --- | --- | --- | --- | --- | --- | --- | --- | --- | --- | --- | --- | --- | --- | --- | --- | --- |
| CC(C)C[C@H](NC(=O)[C@H](Cc1ccccc1)N=[N+]=[N-])C(=O)N[C@@H](CC(C)C)C(=O)N[C@H](/C=C/S(C)(=O)=O)Cc1ccc(CN)cc1 [Compound 4a, N3Phe-Leu-Leu-Phe (4-CH2NH2) VS] | three-fold | 1 | inhibiting (almost) all β2 activity | sensitized RPMI-8226 cells to bortezomib | slightly more potent sensitizer to carfilzomib than was NC-022 | Partial inhibition of cathepsins | completely blocked β5 | synergistic cytotoxicity | overcomes bortezomib resistance | overcomes bortezomib resistance | – | – | – | – | – | – | – | – | – | – |
| Cc1c(O)cccc1C(=O)N[C@H](C(=O)N[C@@H](CO)C(=O)N[C@H](/C=C/S(C)(=O)=O)Cc1ccc(CN)cc1)C(C)C [Compound 48, HMB-Val-Ser-Phe (4-CH2NH2)-VS] | greater than ten-fold | – | – | – | – | did not cause any inhibition of cathepsins | Only a part of the β5 activity was inhibited | – | – | – | 4.96 | 6.70 | 5.49 | < 4.52 | < 4.52 | almost disappeared | not affected at all | almost completely blocked | 5 | 4.71 |
